Test results: patent US20240315993A1, “ANTIPARASITIC COMPOUNDS” (Intervet Inc., priority 2021, published 2024)
pEC50: −log10 of the molar value. Read-outs that look alike come from different tables or passages of the source.

Key:
[1] = system: juvenile soft ticks (Ornithodoros moubata); experiment: Guinea pig - efficacy against argaside tick; format: in vivo
In short: (§1)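 Guinea pigs given 5 mg/kg test compound orally (gavage) or s.c. in 10% DMF/emulsifier plus 90% water for injection, with local co-infestations of Ornithodoros moubata juveniles and Cimex lectularius at several post-treatment times. Engorged parasites scored dead/damaged about 24 h after collection; % inhibition versus pretreatment baseline by modified Schneider-Orelli formula.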

[2] = system: Rhipicephalus microplus; experiment: Cattle - efficacy against one-host tick; format: in vivo
In short: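 Cattle infested whole-body with up to 3000 R. microplus larvae two or three times weekly around Day 0, then given 1 mg/kg subcutaneously or topically (spray or pour-on); controls got excipients only. Engorged females dropping were counted daily; efficacy by ADEQ per WAAVP guidelines, onset/duration as first/last day ≥80%.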

[3] = system: bed bugs (Cimex lectularius); experiment: Guinea pig - efficacy against bed bug; format: in vivo
In short: as §1

[4] = system: Rhipicephalus appendiculatus; experiment: Cattle - efficacy against multi-host ticks (Rhipicephalus appendiculatus); format: in vivo; settings: for effective in treating existing tick infestations: 5 mg/kg, both administration routes (topical, subcutaneous)
Experimental: (§2) Cattle were treated subcutaneously or topically (pour-on) at a dose of 5 mg/kg bodyweight of a test compound (Day 0). As subcutaneous formulation NMP 60%/PEG300 40% was used, and as pour-on formulation DMA 92%/DEET 8% was used. Cattle of the negative control group received only the formulation excipients of both formulations (SC, pour-on).
(§3) Cattle were locally infested with 30 to 40 unfed adult ticks each of Rhipicephalus appendiculatus and Dermacenter variabilis (for both species sex ratio 1:1), by placing the ticks in an ear sleeve (R. appendiculatus) or a stockinet patch attached to the body side (D. variabilis) once before treatment, and at different time points after treatment. Free (i.e., non-attached ticks) were removed from ear sleeves/stockinet patches two days after each infestation and were excluded from the efficacy calculation.
(§4) Compounds with efficacy ≥80 percent were found active.

[5] = system: Ctenocephalides felis fleas; experiment: Dog - efficacy against fleas; format: in vivo; settings: for efficacy against fleas in dogs (conclusion): 10 mg/kg; for therapeutic efficacy against fleas (active = efficacy ≥80 percent): D2
Experimental: Beagle dogs were infested (whole body) with 80 Ctenocephalides felis fleas and 50 Rhipicephalus sanguineus or Haemaphysalis elliptica ticks (sex ratio 1:1) two days before the treatment day (Day 0), and repeatedly thereafter. Dogs of treatment groups were treated with 10 mg/kg bodyweight of a test compound orally (compound weighed in gelatin capsule), topically (spot-on, DMA 92%/DEET 8%) or subcutaneously (PEG 200 90%/water for injection 10%). Dogs of the negative control group received only an empty gelatin capsule orally and the spot-on formulation excipients topically.
as §4

[6] = system: Dermacenter variabilis; experiment: Cattle - efficacy against multi-host ticks (Dermacenter variabilis); format: in vivo; settings: for effective in treating existing tick infestations: 5 mg/kg, both administration routes (topical, subcutaneous)
Experimental: as §2, §3, §4

[7] = system: Copepodids (juvenile sea lice stage of Lepeophtheirus salmonis); experiment: Juvenile sea lice contact assay; settings: Lepeophtheirus salmonis, read-out: Sea lice inhibition (% of dead+damaged copepodids)
Experimental: Copepodids (juvenile sea lice stage of Lepeophtheirus salmonis) were exposed to seawater spiked with declining concentrations of a test compound (dissolved in a DMSO sea-water mixture). Sea lice inhibition (% of dead+damaged copepodids) was assessed after approximately 24 hours of continuous exposure. The vitality of used parasites was confirmed in a negative (solvent) control group.

[8] = system: Lepeophtheirus salmonis; experiment: Salmon - in vivo efficacy against sea lice using gavage administration; settings: po, 168 h
[9] = system: Mobile stages of sea lice (pre-adults, adults of Lepeophtheirus salmonis); experiment: Adult sea lice contact assay; settings: read-out: EC50 (sea lice inhibition, dead+damaged)
Experimental: Mobile stages of sea lice (i.e., pre-adults, adults of Lepeophtheirus salmonis) were exposed to seawater spiked with declining concentrations of a test compound (dissolved in a PEG sea-water mixture). Sea lice inhibition (% of dead+damaged sea lice) was assessed after approximately 1 and 24 hours of continuous exposure in comparison to a negative (solvent) control group.

[10] = 5 mg/kg subcutaneous, after 7 days
[11] = 5 mg/kg subcutaneous, after 10 days
[12] = 1 mg/kg topical (Compound 4: spray solution; others: DMA 92%/DEET 8% pour-on)
[13] = 5 mg/kg subcutaneous, re-infested after 7 days
[14] = 5 mg/kg subcutaneous, re-infested after 14 days
[15] = 5 mg/kg subcutaneous, re-infested after 21 days
[16] = 5 mg/kg subcutaneous, re-infested after 28 days
[17] = 5 mg/kg subcutaneous, re-infested after 35 days
[18] = 5 mg/kg subcutaneous, therapeutic, Day 2
[19] = 5 mg/kg topical pour-on, re-infested after 7 days
[20] = 5 mg/kg topical pour-on, re-infested after 14 days
[21] = 5 mg/kg topical pour-on, re-infested after 21 days
[22] = 5 mg/kg topical pour-on, re-infested after 28 days
[23] = 5 mg/kg topical pour-on, re-infested after 35 days
[24] = 5 mg/kg topical pour-on, therapeutic, Day 2
[25] = 5 mg/kg, at least until Day 10, both administration routes (oral, subcutaneous)
[26] = 1 mg/kg pour on in Imwitor 988+Miglyol 840

`O=C(Nc1ccc(F)cc1F)c1cc(NC(=O)[C@H]2[C@H](c3ccc(F)c(Cl)c3)C2(Cl)Cl)ccc1Cl` [Compound 197] was tested, and the “activity against tick nymphs (≥80% inhibition, killed+damaged)” value ([1]; 5 mg/kg oral, Day 0) was “immediate activity”, the “activity against tick nymphs (≥80% inhibition, killed+damaged)” value ([1]; 5 mg/kg oral, after 7 days) was “activity” and the “activity against tick nymphs (≥80% inhibition, killed+damaged)” value ([1]; 5 mg/kg subcutaneous, Day 0) was “immediate activity”. The “activity against tick nymphs (≥80% inhibition, killed+damaged)” value [1, 10] was “activity”, the “activity against tick nymphs (≥80% inhibition, killed+damaged)” value [1, 11] was “activity” and the “duration of efficacy, subcutaneous compared with oral administration” value ([1]; 5 mg/kg, ticks and bed bugs) was “longer duration of efficacy”. The “duration of efficacy (last Day with efficacy ≥80 percent)” value ([2]; 1 mg/kg subcutaneous) was at least 120 days, the “onset of efficacy (first Day with efficacy ≥80 percent)” value ([2]; 1 mg/kg subcutaneous) was 3 days and the “duration of efficacy (last Day with efficacy ≥80 percent)” value [2, 12] was 47 days. The “onset of efficacy (first Day with efficacy ≥80 percent)” value [2, 12] was 2 days, the “activity against bed bugs (≥80% inhibition, killed+damaged)” value ([3]; 5 mg/kg oral, Day 0) was “immediate activity” and the “activity against bed bugs (≥80% inhibition, killed+damaged)” value ([3]; 5 mg/kg oral, after 7 days) was “activity”. The “activity against bed bugs (≥80% inhibition, killed+damaged)” value ([3]; 5 mg/kg subcutaneous, Day 0) was “immediate activity”, the “activity against bed bugs (≥80% inhibition, killed+damaged)” value [3, 10] was “activity” and the “activity against bed bugs (≥80% inhibition, killed+damaged)” value [3, 11] was “activity”. For the same molecule, the “efficacy ≥80 percent against Rhipicephalus appendiculatus” value [4, 13] was “prophylactic efficacy”, the “efficacy ≥80 percent against Rhipicephalus appendiculatus” value [4, 14] was “prophylactic efficacy” and the “efficacy ≥80 percent against Rhipicephalus appendiculatus” value [4, 15] was “prophylactic efficacy”. The “efficacy ≥80 percent against Rhipicephalus appendiculatus” value [4, 16] was “prophylactic efficacy”, the “efficacy ≥80 percent against Rhipicephalus appendiculatus” value [4, 17] was “prophylactic efficacy” and the “efficacy ≥80 percent against Rhipicephalus appendiculatus” value [4, 18] was “therapeutic efficacy”. The “efficacy ≥80 percent against Rhipicephalus appendiculatus” value [4, 19] was “prophylactic efficacy”, the “efficacy ≥80 percent against Rhipicephalus appendiculatus” value [4, 20] was “prophylactic efficacy” and the “efficacy ≥80 percent against Rhipicephalus appendiculatus” value [4, 21] was “prophylactic efficacy”. The “efficacy ≥80 percent against Rhipicephalus appendiculatus” value [4, 22] was “prophylactic efficacy”, the “efficacy ≥80 percent against Rhipicephalus appendiculatus” value [4, 23] was “prophylactic efficacy” and the “efficacy ≥80 percent against Rhipicephalus appendiculatus” value [4, 24] was “therapeutic efficacy”. The “effective in treating existing tick infestations” value [4] was 100%, the “efficacy against fleas in dogs (conclusion)” value [5] was “therapeutic efficacy” and the “therapeutic efficacy against fleas (active = efficacy ≥80 percent)” value ([5]; 10 mg/kg oral) was “active”. The “therapeutic efficacy against fleas (active = efficacy ≥80 percent)” value ([5]; 10 mg/kg topical spot-on) was “active”, the “efficacy ≥80 percent against Dermacenter variabilis” value [6, 13] was “prophylactic efficacy” and the “efficacy ≥80 percent against Dermacenter variabilis” value [6, 14] was “prophylactic efficacy”. The “efficacy ≥80 percent against Dermacenter variabilis” value [6, 15] was “prophylactic efficacy”, the “efficacy ≥80 percent against Dermacenter variabilis” value [6, 16] was “prophylactic efficacy” and the “efficacy ≥80 percent against Dermacenter variabilis” value [6, 18] was “therapeutic efficacy”. The “efficacy ≥80 percent against Dermacenter variabilis” value [6, 19] was “prophylactic efficacy”, the “efficacy ≥80 percent against Dermacenter variabilis” value [6, 20] was “prophylactic efficacy” and the “efficacy ≥80 percent against Dermacenter variabilis” value [6, 21] was “prophylactic efficacy”. For the same molecule, the “efficacy ≥80 percent against Dermacenter variabilis” value [6, 24] was “therapeutic efficacy”, the “effective in treating existing tick infestations” value [6] was 100% and the inhibition at 0.001 µM ([7]; 24 h) was 100%. The inhibition in vivo at 5 mg/kg ([8]; read-out: therapeutic efficacy against (pre-)adult sea lice (% reduction vs control)) was 80% and the pEC50 [9] was 7.60 to 8.00.

In the case of `O=C(Nc1ncc(F)cc1F)c1cc(NC(=O)[C@H]2[C@H](c3cc(Cl)cc(Cl)c3)C2(Cl)Cl)ccc1Cl` [Compound 453], the “activity against tick nymphs (≥80% inhibition, killed+damaged)” value ([1]; 5 mg/kg oral, Day 0) was “immediate activity”, the “activity against tick nymphs (≥80% inhibition, killed+damaged)” value ([1]; 5 mg/kg oral, after 7 days) was “activity” and the “activity against tick nymphs (≥80% inhibition, killed+damaged)” value ([1]; 5 mg/kg oral, after 10 days) was “activity”. For the same molecule, the “activity against tick nymphs (≥80% inhibition, killed+damaged)” value ([1]; 5 mg/kg subcutaneous, Day 0) was “immediate activity”, the “activity against tick nymphs (≥80% inhibition, killed+damaged)” value [1, 10] was “activity” and the “activity against tick nymphs (≥80% inhibition, killed+damaged)” value [1, 11] was “activity”. The “effective to control ticks” value [1, 25] was 100%, the “duration of efficacy (last Day with efficacy ≥80 percent)” value [2, 26] was 77 days and the “onset of efficacy (first Day with efficacy ≥80 percent)” value [2, 26] was 1 days. For the same molecule, the “duration of efficacy (last Day with efficacy ≥80 percent)” value ([2]; 1 mg/kg pour on in Miglyol 840) was 84 days, the “onset of efficacy (first Day with efficacy ≥80 percent)” value ([2]; 1 mg/kg pour on in Miglyol 840) was 2 days and the “duration of efficacy (last Day with efficacy ≥80 percent)” value ([2]; 1 mg/kg subcutaneous) was 82 days. The “onset of efficacy (first Day with efficacy ≥80 percent)” value ([2]; 1 mg/kg subcutaneous) was 3 days, the “duration of efficacy (last Day with efficacy ≥80 percent)” value [2, 12] was 63 days and the “onset of efficacy (first Day with efficacy ≥80 percent)” value [2, 12] was 3 days. For the same molecule, the “activity against bed bugs (≥80% inhibition, killed+damaged)” value ([3]; 5 mg/kg oral, Day 0) was “immediate activity”, the “activity against bed bugs (≥80% inhibition, killed+damaged)” value ([3]; 5 mg/kg oral, after 7 days) was “activity” and the “activity against bed bugs (≥80% inhibition, killed+damaged)” value ([3]; 5 mg/kg oral, after 10 days) was “activity”. For the same molecule, the “activity against bed bugs (≥80% inhibition, killed+damaged)” value ([3]; 5 mg/kg subcutaneous, Day 0) was “immediate activity”, the “activity against bed bugs (≥80% inhibition, killed+damaged)” value [3, 10] was “activity” and the “activity against bed bugs (≥80% inhibition, killed+damaged)” value [3, 11] was “activity”. For the same molecule, the “effective to control bed bugs” value [3, 25] was 100%, the “efficacy ≥80 percent against Rhipicephalus appendiculatus” value [4, 13] was “prophylactic efficacy” and the “efficacy ≥80 percent against Rhipicephalus appendiculatus” value [4, 14] was “prophylactic efficacy”. For the same molecule, the “efficacy ≥80 percent against Rhipicephalus appendiculatus” value [4, 15] was “prophylactic efficacy”, the “efficacy ≥80 percent against Rhipicephalus appendiculatus” value [4, 16] was “prophylactic efficacy” and the “efficacy ≥80 percent against Rhipicephalus appendiculatus” value [4, 17] was “prophylactic efficacy”. For the same molecule, the “efficacy ≥80 percent against Rhipicephalus appendiculatus” value [4, 18] was “therapeutic efficacy”, the “efficacy ≥80 percent against Rhipicephalus appendiculatus” value [4, 19] was “prophylactic efficacy” and the “efficacy ≥80 percent against Rhipicephalus appendiculatus” value [4, 20] was “prophylactic efficacy”. For the same molecule, the “efficacy ≥80 percent against Rhipicephalus appendiculatus” value [4, 21] was “prophylactic efficacy”, the “efficacy ≥80 percent against Rhipicephalus appendiculatus” value [4, 22] was “prophylactic efficacy” and the “efficacy ≥80 percent against Rhipicephalus appendiculatus” value [4, 23] was “prophylactic efficacy”. For the same molecule, the “efficacy ≥80 percent against Rhipicephalus appendiculatus” value [4, 24] was “therapeutic efficacy”, the “effective in treating existing tick infestations” value [4] was 100% and the “efficacy against fleas in dogs (conclusion)” value [5] was “therapeutic efficacy”. The “therapeutic efficacy against fleas (active = efficacy ≥80 percent)” value ([5]; 10 mg/kg oral) was “active”, the “therapeutic efficacy against fleas (active = efficacy ≥80 percent)” value ([5]; 10 mg/kg topical spot-on) was “active” and the “efficacy ≥80 percent against Dermacenter variabilis” value [6, 13] was “prophylactic efficacy”. The “efficacy ≥80 percent against Dermacenter variabilis” value [6, 14] was “prophylactic efficacy”, the “efficacy ≥80 percent against Dermacenter variabilis” value [6, 15] was “prophylactic efficacy” and the “efficacy ≥80 percent against Dermacenter variabilis” value [6, 16] was “prophylactic efficacy”. For the same molecule, the “efficacy ≥80 percent against Dermacenter variabilis” value [6, 17] was “prophylactic efficacy”, the “efficacy ≥80 percent against Dermacenter variabilis” value [6, 18] was “therapeutic efficacy” and the “efficacy ≥80 percent against Dermacenter variabilis” value [6, 19] was “prophylactic efficacy”. For the same molecule, the “efficacy ≥80 percent against Dermacenter variabilis” value [6, 20] was “prophylactic efficacy”, the “efficacy ≥80 percent against Dermacenter variabilis” value [6, 21] was “prophylactic efficacy” and the “efficacy ≥80 percent against Dermacenter variabilis” value [6, 22] was “prophylactic efficacy”. For the same molecule, the “efficacy ≥80 percent against Dermacenter variabilis” value [6, 23] was “prophylactic efficacy”, the “efficacy ≥80 percent against Dermacenter variabilis” value [6, 24] was “therapeutic efficacy” and the “effective in treating existing tick infestations” value [6] was 100%. For the same molecule, the inhibition at 0.001 µM ([7]; 1 nM in seawater, ~24 h) was 100%, the inhibition in vivo at 5 mg/kg ([8]; read-out: therapeutic efficacy against (pre-)adult sea lice (% reduction vs control), salmon, 5 mg/kg once by gavage, day -28 infestation, counted day 7) was 100% and the pEC50 ([9]; pre-adults/adults, assessed after ~1 and 24 h) was at least 8.00.
